Test results reported in patent US6548041B1, “Dopamine transporter imaging agents” (Organix, Inc., priority 1999, dated 2003).

How the values were obtained:
[1] = biological target: dopamine transporter (DAT); experiment: Binding affinity for the dopamine transporter; conditions: for DAT/SERT: selectivity ratio from the IC50 values for DAT and SERT
[2] = biological target: SERT (Homo sapiens, UniProt P31645); experiment: Binding affinity for SERT (selectivity test)
[3] = biological target: T1, DAT sites in striatum (Macaca mulatta, UniProt Q7JHP9); experiment: SPECT imaging of monkey brain with 99mTc labeled tracers; assay type: in vivo, Rhesus monkeys; conditions: for accumulation of radioactivity in striatum vs other areas of the brain (SPECT images): images acquired between 30 and 50 minutes after injection
T1 construct: from tissue; host or cells: brain (striatum) of living rhesus monkeys, imaged in vivo
Experimental: (§1) All SPECT images were acquired with a MultiSPECT 2 gamma camera (Siemens, Hoffman Estates, Ill.) equipped with fan-beam collimators and peaked to the 140 KeV photopeak of ^99mTc (15% window). This camera has intrinsic resolution of 4.6 mm (FWHM), and a sensitivity of ˜240 cps/mCi. Images were acquired over 360° (60 projections/head, 128×128 matrix) in the continuous mode. Image reconstruction was performed using a conventional filtered back-projection algorithm to an in-plane resolution of 10 mm FWHM and attenuation correction via the Chang method.
(§2) Rhesus monkeys weighing approximately 7 kg were anesthetized with ketamine/xylazine (15.0 and 1.5 mg/kg) and positioned prone on the imaging bed of the SPECT camera. Before the start of imaging, a venous catheter was inserted in a peripheral vein for radiopharmaceutical administration. The heads of the animals were immobilized with a custom fabricated head holder. Approximately 20-25 mCi of ^99mTc labeled O-1505T, O-1508T, O-1561T or O-1560T was injected intravenously over 60 seconds. Dynamic SPECT imaging was initiated at the end of the infusion and consisted of 2 min. acquisitions during the first hour and 5 min. acquisitions thereafter.
(§3) SPECT slices with greatest striatal activity or in which the occipital cortex was well visualized were summed and regions of interest (ROI's) were constructed. In the striatal planes, ROI's were placed on the right and left striatum (caudate+putamen). Radioactivity in the right and left striatum were averaged. ROI radioactivities (cpm/cc) were decay corrected to the time of injection. The difference between striatal and occipital cortex activity (specific binding) was calculated for each image and was plotted as a function of time. Corrections for scattered fraction and partial volume effects were not performed.

[4] = tested on: DAT sites in striatum; experiment: as above; assay type: in vivo, Rhesus monkeys; conditions: SPECT images
Experimental: as §1, §2, §3

[5] = Biodistribution and radiation dosimetry (MIRdose); assay type: in vivo, Sprague-Dawley rats; conditions: rat, 5 min to 24 hrs after injection
Experimental: Groups of male Sprague-Dawley rats were in injected with ˜10 mCi of ^99mTc labeled O-1505T and O-1561T. At time intervals between 5 min. and 24 hrs after injection, groups of 6 animals injected with each radiopharmaceutical were sacrificed and biodistribution was measured. Samples of blood, heart, lung, liver, spleen, kidney, adrenal, stomach, GI tract, testes, bone, bone marrow and skeletal muscle were weighed and radioactivity was measured with a well type gamma counter (LKB model #1282, Wallac Oy, Finland). To correct for radioactive decay and permit calculation of the concentration of radioactivity in each organ as a fraction of the administered dose, aliquots of the injected doses were counted simultaneously. The results were expressed as percent injected dose per gram (%I.D./g) and radiation dosimetry was estimated by the MIRdose method.

Sequence of SERT (P31645 whole entry, species assumed): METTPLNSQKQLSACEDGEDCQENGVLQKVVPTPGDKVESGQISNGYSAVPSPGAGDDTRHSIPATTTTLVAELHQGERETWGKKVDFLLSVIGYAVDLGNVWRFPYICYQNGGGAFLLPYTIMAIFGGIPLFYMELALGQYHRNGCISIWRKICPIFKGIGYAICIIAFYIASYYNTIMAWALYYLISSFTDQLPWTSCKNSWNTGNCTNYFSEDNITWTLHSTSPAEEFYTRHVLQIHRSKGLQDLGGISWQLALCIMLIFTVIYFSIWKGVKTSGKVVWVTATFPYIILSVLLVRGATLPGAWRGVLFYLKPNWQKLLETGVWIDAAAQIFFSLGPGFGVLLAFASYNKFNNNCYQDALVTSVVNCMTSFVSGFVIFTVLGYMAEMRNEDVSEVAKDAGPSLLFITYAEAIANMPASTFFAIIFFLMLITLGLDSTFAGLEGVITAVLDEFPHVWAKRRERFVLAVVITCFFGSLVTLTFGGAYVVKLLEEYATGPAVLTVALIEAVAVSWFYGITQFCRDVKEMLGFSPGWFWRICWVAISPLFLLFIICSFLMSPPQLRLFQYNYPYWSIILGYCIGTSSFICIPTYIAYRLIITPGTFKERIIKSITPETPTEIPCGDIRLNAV
T1 sequence (Q7JHP9 1-620): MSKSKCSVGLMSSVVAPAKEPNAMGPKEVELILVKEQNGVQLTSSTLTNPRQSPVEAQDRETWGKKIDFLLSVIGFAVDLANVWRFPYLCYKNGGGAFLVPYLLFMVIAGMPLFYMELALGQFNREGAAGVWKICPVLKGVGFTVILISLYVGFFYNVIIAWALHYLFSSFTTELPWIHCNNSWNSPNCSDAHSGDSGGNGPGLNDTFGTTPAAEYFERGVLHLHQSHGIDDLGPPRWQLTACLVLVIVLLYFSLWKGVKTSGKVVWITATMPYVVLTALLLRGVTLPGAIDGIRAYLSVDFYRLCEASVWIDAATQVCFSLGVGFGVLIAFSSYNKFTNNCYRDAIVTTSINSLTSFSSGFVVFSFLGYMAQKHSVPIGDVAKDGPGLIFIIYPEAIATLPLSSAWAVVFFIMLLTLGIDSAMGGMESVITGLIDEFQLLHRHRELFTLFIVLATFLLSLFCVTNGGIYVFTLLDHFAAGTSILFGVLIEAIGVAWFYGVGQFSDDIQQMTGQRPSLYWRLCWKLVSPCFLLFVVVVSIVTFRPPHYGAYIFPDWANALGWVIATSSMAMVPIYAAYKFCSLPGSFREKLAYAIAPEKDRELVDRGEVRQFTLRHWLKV

Question: Which IC50 [1] does the source give for `COC(=O)C1C(c2ccc(F)cc2)CC2CCC1N2CCC[N+]12CC[S][Re-]13(=[O])[S]CC[N]3C(=O)C2` (mixture of isomers) [Compound O-861] here?
Answer: 2.9 nM

Question: What about the DAT/SERT [1] of the same compound?
Answer: 28

Question: And the IC50 [2]?
Answer: 80 nM

Question: With `COC(=O)C1C(c2ccc(Cl)c(Cl)c2)CC2CCC1N2CCC[N+]12CC[S][Re-]13(=[O])[S]CC[N]3C(=O)C2` (mixture of isomers) [Compound O-863] as the compound, how does the IC50 [1] read?
Answer: 40 nM

Question: With `COC(=O)C1=C(c2ccc3ccccc3c2)CC2CCC1N2CCC[N+]12CC[S][Re-]13(=[O])[S]CC[N]3C(=O)C2` (mixture of isomers) [Compound O-1185, N-[(2-((3′-N′-Propyl-(1″R)-2″-methoxycarbonyl-3″-(2-naphthyl)-trop-2-ene)(2-mercaptoethyl)amino)acetyl)-2-aminoethane-thiolato]-rhenium (V) Oxide] as the compound, how does the IC50 [1] read?
Answer: 63 nM

Question: What about the DAT/SERT [1] of the same compound?
Answer: 15

Question: And the IC50 [2]?
Answer: 960 nM

Question: Which IC50 [1] does the source give for `COC(=O)C1C(c2ccc3ccccc3c2)CC2CCC1N2CCC[N+]12CC[S][Re-]13(=[O])[S]CC[N]3C(=O)C2` (mixture of isomers) [Compound O-1339, N-[(2-((3′-N′-Propyl-(1″R)-2″β-methoxycarbonyl-3″β-(2-naphthyl)-tropane)(2-mercaptoethyl)amino)acetyl)-2-aminoethanethiolato]-rhenium (V) Oxide] here?
Answer: 3.6 nM

Question: What about the DAT/SERT [1] of the same compound?
Answer: 16

Question: What about the IC50 [2] of the same compound?
Answer: 59 nM

Question: With `CCC(=O)C1C(c2ccc(F)cc2)CC2CCC1N2CCCN1CC[S][Re]2(=[O])[S]CC[N]2C(=O)C1` (mixture of isomers) [Compound O-1508, N-[(2-((3′-N′-Propyl-(1″R)-3″β-(4-fluorophenyl)tropane-2″β-1-propanoyl)(2-mercaptoethyl)amino)acetyl)-2-aminoethane-thiolato]rhenium (V) oxide] as the compound, how does the IC50 [1] read?
Answer: 5.9 nM

Question: What about the DAT/SERT [1] of the same compound?
Answer: 34

Question: What about the IC50 [2] of the same compound?
Answer: 200 nM

Question: Which results are given for `CCC(=O)C1C(c2ccc(Cl)c(Cl)c2)CC2CCC1N2CCCN1CC[S][Re]2(=[O])[S]CC[N]2C(=O)C1` (mixture of isomers) [Compound O-1561, N-[(2-((3′-N′-Propyl-(1″R)-3″α-(3,4-dichlorophenyl)tropane-2″β-1′″-propanoyl)(2-mercaptoethyl)amino)acetyl)-2-aminoethane-thiolato]rhenium (V) Oxide]?
Answer: IC50 [1]: 5.3 nM; DAT/SERT [1]: 63; IC50 [2]: 337 nM

Question: For `COC(=O)C1C(c2ccc(F)cc2)CC2CCC1N2CCCN1CC[S][Re]2(=[O])[S]CC[N]2C(=O)C1` (single isomer, unassigned) [Compound O-927], which IC50 [1] is on record?
Answer: 5 nM

Question: What about the DAT/SERT [1] of the same compound?
Answer: 40

Question: And the IC50 [2]?
Answer: 200 nM

Question: Which IC50 [1] does the source give for `COC(=O)C1C(c2ccc(F)cc2)CC2CCC1N2CCCN1CC[S][Re]2(=[O])[S]CC[N]2C(=O)C1` (single isomer, unassigned) [Compound O-928] here?
Answer: 3 nM

Question: What about the DAT/SERT [1] of the same compound?
Answer: 10

Question: What about the IC50 [2] of the same compound?
Answer: 30 nM

Question: What does the source list for `COC(=O)C1=C(c2ccc(Cl)c(Cl)c2)CC2CCC1N2CCC[N+]12CC[S][Re-]13(=[O])[S]CC[N]3C(=O)C2` (centres unmarked) [Compound O-1136, N-[(2-((3′-N′-Propyl-(1″R)-3″-(3,4-dichlorophenyl)trop-2-ene-2″-methoxycarbonyl)(2-mercaptoethyl)amino)acetyl)-2-aminoethane-thiolato]rhenium (V) Oxide]?
Answer: IC50 [1]: 60 nM; DAT/SERT [1]: 28; IC50 [2]: 1690 nM

Question: Which IC50 [1] does the source give for `COC(=O)C1C(c2ccc(F)cc2)CC2CCC1N2CCC[N+]12CC[S][Re-]13(=[O])[S]CC[N]3C(=O)C2` (centres unmarked) [Compound O-1186] here?
Answer: 3.8 nM

Question: What about the DAT/SERT [1] of the same compound?
Answer: 340

Question: What about the IC50 [2] of the same compound?
Answer: 1300 nM

Question: For `COC(=O)C1C(c2ccc(Cl)c(Cl)c2)CC2CCC1N2CCC[N+]12CC[S][Re-]13(=[O])[S]CC[N]3C(=O)C2` (stereo not drawn) [Compound O-1196, N-[(2-((3′-N′-Propyl-(1″R)-3″α-(3,4-dichlorophenyl)-2″β-methoxy-carbonyltropane)(2-mercaptoethyl)amino)acetyl)-2-aminoethanethiolato]rhenium (V) Oxide], which IC50 [1] is on record?
Answer: 10 nM

Question: What about the DAT/SERT [1] of the same compound?
Answer: 64

Question: What about the IC50 [2] of the same compound?
Answer: 640 nM

Question: For `CON(C)C(=O)C1C(c2ccc(F)cc2)CC2CCC1N2CCC[N+]12CC[S][Re-]13(=[O])[S]CC[N]3C(=O)C2` (stereo not drawn) [Compound O-1451, N-[(2-((3′-N′-Propyl-(1″R)-3″α-(4-fluorophenyl)tropane-2″β-methoxymethylcarbamoyl)(2-mercaptoethyl)amino)acetyl)-2-aminoethanethiolato]rhenium (V) Oxide], which IC50 [1] is on record?
Answer: 40 nM

Question: And the DAT/SERT [1]?
Answer: 80

Question: What about the IC50 [2] of the same compound?
Answer: 3260 nM

Question: For `CCC(=O)C1C(c2ccc(F)cc2)CC2CCC1N2CCC[N+]12CC[S][Re-]13(=[O])[S]CC[N]3C(=O)C2` (stereo not drawn) [Compound O-1505, N-[(2-((3′-N′-Propyl-(1″R)-3″α-(4-fluorophenyl)tropane-2″β-1′″-propanoyl)(2-mercaptoethyl)amino)acetyl)-2-aminoethane-thiolato]rhenium (V) Oxide], which IC50 [1] is on record?
Answer: 2 nM

Question: And the DAT/SERT [1]?
Answer: 249

Question: And the IC50 [2]?
Answer: 497 nM

Question: Which “accumulation of radioactivity in striatum vs other areas of the brain (SPECT images)” value [3] does the source give for `CCC(=O)C1C(c2ccc(F)cc2)CC2CCC1N2CCCN1CC[S][99Tc]2(=[O])[S]CC[N]2C(=O)C1` (stereo not drawn) [Compound O-1508T, N-[(2-((3′-N′-Propyl-(1″R)-3″β-(4-fluorophenyl)tropane-2″β-1-propanoyl)-(2-mercaptoethyl)amino)acetyl)-2-aminoethanethiolato]technetium (V) Oxide] here?
Answer: failing to demonstrate significant accumulation of radioactivity in striatum or elsewhere in the brain

Question: With `CCC(=O)C1C(c2ccc(Cl)c(Cl)c2)CC2CCC1N2CCCN1CC[S][99Tc]2(=[O])[S]CC[N]2C(=O)C1` (stereo not drawn) [Compound O-1560T, N-[(2-((3′-N′-Propyl-(1″R)-2″β-1-propanoyl-3″β-(3,4-dichlorophenyl)-tropane)(2-mercaptoethyl)amino)acetyl)-2-aminoethanethiolato]-technetium (V) Oxide] as the compound, how does the “accumulation of radioactivity in striatum vs other areas of the brain (SPECT images)” value [3] read?
Answer: results more like O-1505T and O-1561T

Question: For `CCC(=O)C1C(c2ccc(Cl)c(Cl)c2)CC2CCC1N2CCCN1CC[S][99Tc]2(=[O])[S]CC[N]2C(=O)C1` (stereo not drawn) [Compound O-1561T, N-[(2-((3′-N′-Propyl-(1″R)-2″β-1-propanoyl-3″α-(3,4-dichlorophenyl)-tropane)(2-mercaptoethyl)amino)acetyl)-2-aminoethanethiolato]-technetium (V) Oxide], which “time after injection to excellent contrast between striatum and the rest of the brain” value ([3]; i.v., normal monkeys) is on record?
Answer: ≤ 30 min

Question: And the “accumulation of radioactivity in striatum vs other areas of the brain (SPECT images)” value [3]?
Answer: high concentrations of radiopharmaceutical in the striatum with minimal accumulation in other areas of the brain

Question: What about the “striatal to occipital cortex ratio” value ([3]; region of interest analysis, SPECT images 30-50 minutes after i.v. injection of 20-25 mCi) of the same compound?
Answer: ~2.5

Question: And the “accumulation in thalamus, hypothalamus or midbrain (regions rich in 5-HT transporters)” value [4]?
Answer: lack of accumulation

Question: And the “clearance from tissues (biodistribution)” value [5]?
Answer: cleared rapidly from all tissues of the rat
